Data taken from PubChem BioAssay (NCI).
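Dose response: 5 concentrations. Exposure: 48 h. Format: 96-well plates. Endpoint: linear interpolation; highest concentration if not reached. Here, GI50 denotes the concentration required for 50% inhibition of growth. Definition used: TGI = concentration required for complete inhibition of growth.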

Legend:
Test in all cases: NCI anticancer screen, dose series, 48 h
786-0 renal = system: 786-0 renal
A498 renal = system: A498 renal
A549 NSCLC = system: A549 NSCLC
ACHN renal = system: ACHN renal
BT-549 breast = system: BT-549 breast
CAKI-1 renal = system: CAKI-1 renal
CCRF-CEM leukemia = system: CCRF-CEM leukemia
COLO 205 colon = system: COLO 205 colon
DU-145 prostate = system: DU-145 prostate
EKVX NSCLC = system: EKVX NSCLC
HCC-2998 colon = system: HCC-2998 colon
HCT-116 colon = system: HCT-116 colon
HCT-15 colon = system: HCT-15 colon
HL-60(TB) leukemia = system: HL-60(TB) leukemia
HOP-62 NSCLC = system: HOP-62 NSCLC
HOP-92 NSCLC = system: HOP-92 NSCLC
HS 578T breast = system: HS 578T breast
HT29 colon = system: HT29 colon
IGROV1 ovarian = system: IGROV1 ovarian
K-562 leukemia = system: K-562 leukemia
KM12 colon = system: KM12 colon
LOX IMVI melanoma = system: LOX IMVI melanoma
M14 melanoma = system: M14 melanoma
MALME-3M melanoma = system: MALME-3M melanoma
MCF7 breast = system: MCF7 breast
MDA-MB-231 breast = system: MDA-MB-231 breast
MDA-MB-435 = system: MDA-MB-435
MOLT-4 leukemia = system: MOLT-4 leukemia
NCI-H226 lung = system: NCI-H226 lung
NCI-H23 lung = system: NCI-H23 lung
NCI-H460 lung = system: NCI-H460 lung
NCI-H522 lung = system: NCI-H522 lung
NCI/ADR-RES ovarian = system: NCI/ADR-RES ovarian
OVCAR-3 ovarian = system: OVCAR-3 ovarian
OVCAR-4 ovarian = system: OVCAR-4 ovarian
OVCAR-5 ovarian = system: OVCAR-5 ovarian
OVCAR-8 ovarian = system: OVCAR-8 ovarian
RPMI-8226 leukemia = system: RPMI-8226 leukemia
RXF 393 renal = system: RXF 393 renal
SF-268 CNS = system: SF-268 CNS
SF-295 CNS = system: SF-295 CNS
SF-539 CNS = system: SF-539 CNS
SK-MEL-2 melanoma = system: SK-MEL-2 melanoma
SK-MEL-28 melanoma = system: SK-MEL-28 melanoma
SK-MEL-5 melanoma = system: SK-MEL-5 melanoma
SK-OV-3 ovarian = system: SK-OV-3 ovarian
SN12C renal = system: SN12C renal
SNB-19 CNS = system: SNB-19 CNS
SNB-75 CNS = system: SNB-75 CNS
SR leukemia = system: SR leukemia
SW-620 colon = system: SW-620 colon
T-47D breast = system: T-47D breast
TK-10 renal = system: TK-10 renal
U251 CNS = system: U251 CNS
UACC-257 melanoma = system: UACC-257 melanoma
UACC-62 melanoma = system: UACC-62 melanoma
UO-31 renal = system: UO-31 renal

COc1ccc(-c2cc(-c3ccc(Nc4nc(Nc5ccccc5)nc(Nc5ccc(Cl)cc5)n4)cc3)nc(N)n2)cc1
GI50 (786-0 renal): 11.5 µM
TGI (786-0 renal): 33.1 µM
GI50 (A498 renal): 9.29 µM
TGI (A498 renal): 20 µM
GI50 (A549 NSCLC): 20.5 µM
TGI (A549 NSCLC): > 50 µM
GI50 (ACHN renal): 16.4 µM
TGI (ACHN renal): > 50 µM
GI50 (BT-549 breast): 10 µM
TGI (BT-549 breast): 29.5 µM
GI50 (CAKI-1 renal): 5.4 µM
TGI (CAKI-1 renal): 23.3 µM
GI50 (CCRF-CEM leukemia): 6 µM
TGI (CCRF-CEM leukemia): 29.5 µM
GI50 (COLO 205 colon): 2.29 µM
TGI (COLO 205 colon): 16.7 µM
GI50 (DU-145 prostate): 12.1 µM
TGI (DU-145 prostate): 26.9 µM
GI50 (EKVX NSCLC): 6.55 µM
TGI (EKVX NSCLC): > 50 µM
GI50 (HCC-2998 colon): 12.8 µM
TGI (HCC-2998 colon): 35 µM
GI50 (HCT-116 colon): 6.74 µM
TGI (HCT-116 colon): 16.8 µM
GI50 (HCT-15 colon): 13.5 µM
TGI (HCT-15 colon): > 50 µM
GI50 (HL-60(TB) leukemia): 2.31 µM
TGI (HL-60(TB) leukemia): 17.9 µM
GI50 (HOP-62 NSCLC): 10.3 µM
TGI (HOP-62 NSCLC): 33.1 µM
GI50 (HOP-92 NSCLC): 5.28 µM
TGI (HOP-92 NSCLC): 19.3 µM
GI50 (HS 578T breast): 6.65 µM
TGI (HS 578T breast): 32.2 µM
GI50 (HT29 colon): 7.56 µM
TGI (HT29 colon): 21.8 µM
GI50 (IGROV1 ovarian): 6.27 µM
TGI (IGROV1 ovarian): 28.2 µM
GI50 (K-562 leukemia): 4.63 µM
TGI (K-562 leukemia): 16.5 µM
GI50 (KM12 colon): 4.72 µM
TGI (KM12 colon): 45.1 µM
GI50 (LOX IMVI melanoma): 11.1 µM
TGI (LOX IMVI melanoma): 39 µM
GI50 (M14 melanoma): 9.33 µM
TGI (M14 melanoma): 28.8 µM
GI50 (MALME-3M melanoma): 15.2 µM
TGI (MALME-3M melanoma): > 50 µM
GI50 (MCF7 breast): 5.34 µM
TGI (MCF7 breast): 21 µM
GI50 (MDA-MB-231 breast): 8.28 µM
TGI (MDA-MB-231 breast): > 50 µM
GI50 (MDA-MB-435): 14.5 µM
TGI (MDA-MB-435): > 50 µM
GI50 (MOLT-4 leukemia): 0.623 µM
TGI (MOLT-4 leukemia): 12 µM
GI50 (NCI-H226 lung): 12.9 µM
TGI (NCI-H226 lung): > 50 µM
GI50 (NCI-H23 lung): 9.4 µM
TGI (NCI-H23 lung): 25.9 µM
GI50 (NCI-H460 lung): 8.57 µM
TGI (NCI-H460 lung): 26.7 µM
GI50 (NCI-H522 lung): 9.02 µM
TGI (NCI-H522 lung): 27.1 µM
GI50 (NCI/ADR-RES ovarian): 37.4 µM
TGI (NCI/ADR-RES ovarian): > 50 µM
GI50 (OVCAR-3 ovarian): 11.3 µM
TGI (OVCAR-3 ovarian): > 50 µM
GI50 (OVCAR-4 ovarian): 10.7 µM
TGI (OVCAR-4 ovarian): > 50 µM
GI50 (OVCAR-5 ovarian): 9.72 µM
TGI (OVCAR-5 ovarian): 26.3 µM
GI50 (OVCAR-8 ovarian): 15.1 µM
TGI (OVCAR-8 ovarian): > 50 µM
GI50 (RPMI-8226 leukemia): 5.15 µM
TGI (RPMI-8226 leukemia): 20.5 µM
GI50 (RXF 393 renal): 12.1 µM
TGI (RXF 393 renal): 30.7 µM
GI50 (SF-268 CNS): 13.3 µM
TGI (SF-268 CNS): 46.8 µM
GI50 (SF-295 CNS): 7.92 µM
TGI (SF-295 CNS): 25.8 µM
GI50 (SF-539 CNS): 10.3 µM
TGI (SF-539 CNS): 25.8 µM
GI50 (SK-MEL-2 melanoma): 13.1 µM
TGI (SK-MEL-2 melanoma): 44.1 µM
GI50 (SK-MEL-28 melanoma): 10.9 µM
TGI (SK-MEL-28 melanoma): 26.5 µM
GI50 (SK-MEL-5 melanoma): 6.55 µM
TGI (SK-MEL-5 melanoma): 20.9 µM
GI50 (SK-OV-3 ovarian): 22.7 µM
TGI (SK-OV-3 ovarian): > 50 µM
GI50 (SN12C renal): 11.8 µM
TGI (SN12C renal): 32.6 µM
GI50 (SNB-19 CNS): 9.03 µM
TGI (SNB-19 CNS): 24.6 µM
GI50 (SNB-75 CNS): 6.02 µM
TGI (SNB-75 CNS): 48.1 µM
GI50 (SR leukemia): 5.63 µM
TGI (SR leukemia): 18.7 µM
GI50 (SW-620 colon): 13.1 µM
TGI (SW-620 colon): 44.9 µM
GI50 (T-47D breast): 6.3 µM
TGI (T-47D breast): 21.7 µM
GI50 (TK-10 renal): 14.2 µM
TGI (TK-10 renal): > 50 µM
GI50 (U251 CNS): 8.41 µM
TGI (U251 CNS): > 50 µM
GI50 (UACC-257 melanoma): 15.9 µM
TGI (UACC-257 melanoma): 45.5 µM
GI50 (UACC-62 melanoma): 12.1 µM
TGI (UACC-62 melanoma): > 50 µM
GI50 (UO-31 renal): 8.13 µM
TGI (UO-31 renal): > 50 µM
